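Exposure lasted 48 hours, with cells grown in 96-well plates and compounds tested at five concentrations. GI50 marks 50% less growth.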 Calls of active or inactive are those of the source. Rule as the data show it: active = GI50 up to about 1.1 µM and inactive = higher.
Key:
Test in all cases: inhibition of tumour cell growth, NCI panel, 48 h
[1] = tested on: OVCAR-8
[2] = tested on: SK-MEL-2
[3] = tested on: SW-620
[4] = tested on: CCRF-CEM
[5] = tested on: RXF 393
[6] = tested on: SK-MEL-28
[7] = tested on: SNB-19
[8] = tested on: SK-OV-3
[9] = tested on: CAKI-1
[10] = tested on: MOLT-4
[11] = tested on: RPMI-8226
[12] = tested on: LOX IMVI
[13] = tested on: COLO 205
[14] = tested on: UACC-257
[15] = tested on: HCC 2998
[16] = tested on: OVCAR-4

Measured: GI50

O=C(Nc1ccc(Cl)cc1)C1C(=O)C(=O)N(c2ccc(Cl)cc2)C1=O (centres undefined)
inactive: [1] > 100 µM | [2] 38.6 µM | [3] > 100 µM | [4] 73.6 µM | [5] > 100 µM | [6] > 100 µM | [7] 76.7 µM | [8] > 100 µM | [9] > 100 µM | [10] 71.3 µM | [11] > 100 µM | [12] > 100 µM | [13] > 100 µM

C1=CC2SSSC2C1 (centres undefined)
inactive: [1] > 100 µM | [2] > 100 µM | [3] > 100 µM | [14] > 100 µM | [4] > 100 µM | [5] > 100 µM | [15] > 100 µM | [6] > 100 µM | [7] > 100 µM | [8] > 100 µM | [10] > 100 µM | [16] > 100 µM | [11] > 100 µM | [12] > 100 µM | [13] > 100 µM

C/C(CN1C(=O)c2ccccc2C1=O)=N\NS(=O)(=O)c1ccccc1
inactive: [1] > 100 µM | [2] > 100 µM | [3] > 100 µM | [14] > 100 µM | [4] > 100 µM | [15] > 100 µM | [6] > 100 µM | [7] > 100 µM | [8] > 100 µM | [9] > 100 µM | [10] > 100 µM | [16] > 100 µM | [11] > 100 µM | [12] > 100 µM | [13] > 100 µM

COc1ccc(CCN(C)C2CCC(C#N)(c3ccc(OC)c(OC)c3)CC2)cc1OC (centres undefined)
inactive: [1] > 100 µM | [2] > 100 µM | [3] > 100 µM | [14] > 100 µM | [4] > 100 µM | [5] > 100 µM | [15] 34.8 µM | [6] 83.8 µM | [7] > 100 µM | [8] > 100 µM | [10] > 100 µM | [16] > 100 µM | [11] 54 µM | [12] > 100 µM | [13] 26.7 µM

C/C=C1\CCC2c3[nH]c4ccccc4c3CCN2C1 (centres undefined)
inactive: [1] > 100 µM | [2] > 100 µM | [3] > 100 µM | [4] > 100 µM | [5] 66.4 µM | [6] > 100 µM | [7] > 100 µM | [8] > 100 µM | [9] > 100 µM | [10] 76.4 µM | [16] 32.1 µM

O=C(O)C1CC2CC(=O)C1C2 (centres undefined)
inactive: [1] > 100 µM | [2] > 100 µM | [3] > 100 µM | [14] > 100 µM | [4] > 100 µM | [5] > 100 µM | [6] > 100 µM | [7] > 100 µM | [8] > 100 µM | [9] > 100 µM | [10] > 100 µM | [16] > 100 µM | [11] > 100 µM | [12] > 100 µM | [13] > 100 µM

NN/C(Cc1ccccc1)=N/NC(N)=S
inactive: [1] > 100 µM | [2] > 100 µM | [3] > 100 µM | [14] > 100 µM | [4] 54.1 µM | [5] > 100 µM | [15] > 100 µM | [6] > 100 µM | [8] > 100 µM | [10] 49.9 µM | [16] > 100 µM | [11] > 100 µM | [12] 82.6 µM | [13] > 100 µM

CCOC(=O)/C(O)=C(/C(=O)OC)c1ccc(Cl)cc1
inactive: [1] > 100 µM | [2] > 100 µM | [3] > 100 µM | [14] > 100 µM | [4] > 100 µM | [15] > 100 µM | [6] > 100 µM | [7] > 100 µM | [8] > 100 µM | [9] > 100 µM | [10] > 100 µM | [16] > 100 µM | [11] > 100 µM | [12] > 100 µM | [13] > 100 µM

COc1ccc2c(c1)[n+]([O-])c(C(=O)C/C(=N/OCCCc1ccccc1)C(=O)NC13CC4CC(CC(C4)C1)C3)c(C)[n+]2[O-]
inactive: [1] > 100 µM | [2] > 100 µM | [3] > 100 µM | [14] > 100 µM | [4] 54.8 µM | [15] > 100 µM | [6] > 100 µM | [7] > 100 µM | [8] > 100 µM | [9] > 100 µM | [10] > 100 µM | [16] > 100 µM | [11] > 100 µM | [12] > 100 µM | [13] > 100 µM

CCOC(=O)/C(=C/c1ccccc1)N(CC)CC
inactive: [1] > 100 µM | [2] > 100 µM | [3] > 100 µM | [14] > 100 µM | [4] 62.2 µM | [15] > 100 µM | [6] > 100 µM | [7] > 100 µM | [8] > 100 µM | [9] > 100 µM | [10] > 100 µM | [16] > 100 µM | [11] > 100 µM | [12] 94.4 µM | [13] > 100 µM

Cc1cc2c(C)n(Cc3ccc(Cl)cc3Cl)nc2c(C(=O)O)c1C
inactive: [1] > 100 µM | [2] > 100 µM | [3] > 100 µM | [14] > 100 µM | [4] > 100 µM | [5] > 100 µM | [15] > 100 µM | [6] > 100 µM | [7] > 100 µM | [8] > 100 µM | [10] > 100 µM | [11] > 100 µM | [12] > 100 µM | [13] > 100 µM

S=C(N/N=C/c1ccccc1)NC1CC(c2ccccc2)Oc2ccccc21 (centres undefined)
inactive: [1] 48 µM | [2] > 100 µM | [3] > 100 µM | [4] > 10 µM | [15] > 100 µM | [6] 70 µM | [7] 36.5 µM | [8] 11.7 µM | [9] 28.4 µM | [10] > 10 µM | [16] 16.9 µM | [12] > 100 µM | [13] > 100 µM

COc1cc(CC2c3cc(OC)c(OC)cc3CCN2C)c(C(=O)O)cc1OC (centres undefined)
inactive: [1] > 100 µM | [2] > 100 µM | [3] > 100 µM | [14] > 100 µM | [4] > 100 µM | [5] > 100 µM | [15] > 100 µM | [6] > 100 µM | [7] > 100 µM | [8] > 100 µM | [10] > 100 µM | [11] > 100 µM | [12] > 100 µM | [13] > 100 µM

Cc1cc(=O)oc2cc3c(cc12)Oc1ccccc1O3
inactive: [1] 42.7 µM | [2] > 100 µM | [3] > 100 µM | [14] > 100 µM | [4] > 10 µM | [5] > 100 µM | [15] > 10 µM | [6] > 100 µM | [7] > 100 µM | [8] 99.8 µM | [10] > 100 µM | [16] > 100 µM | [11] > 100 µM | [12] 54.6 µM | [13] > 100 µM

Reference: ChEMBL document CHEMBL1201862, “PubChem BioAssay data set” (2004)
